Literature values in US20110105442A2, “MEANS AND METHODS FOR CONTROLLING COMMENSALES” (Biotechnology Research And Information Network, AG …, priority 2008, published 2011).
Where two headings read alike, the source gives them in different places.

Test system: certain Gram-positive and Gram-negative bacteria including commensales of the skin
Conditions: Malmstrøm et al., 2002, biofilm not assayed

C/C=C/C1=CC(=O)[C@H](O)[C@H]1O (stereo in doubt) [Terrein, 4,5-Dihydroxy-3-(1-propenyl)-2-cyclopenten-1-one]
antibacterial activity: weak antibacterial activity
antibacterial activity (listed as terrein): weak to negligible activity
